Source: ChEMBL document CHEMBL2413072, “Synthesis and in vitro anticancer studies of novel C-2 arylidene congeners of lantadenes” (2013)

Tests used:
Format in all cases: functional
[1] = Growth inhibition of human HCC2998 cells assessed as cell growth at 10^-6 M by sulforhodamine B assay; details: HCC 2998, read-out: Activity
[2] = tested on: CAKI-1; assay: Growth inhibition of human CAKI-1 cells assessed as cell growth at 10^-7 M by sulforhodamine B assay; details: read-out: Activity
[3] = tested on: SF-539; assay: Growth inhibition of human SF539 cells by sulforhodamine B assay
[4] = tested on: UO-31; assay: Growth inhibition of human UO31 cells assessed as cell growth at 10^-6 M by sulforhodamine B assay; details: read-out: Activity
[5] = tested on: NCI-H226; assay: Growth inhibition of human NCI-H226 cells assessed as cell growth at 10^-7 M by sulforhodamine B assay; details: read-out: Activity
[6] = tested on: HL-60(TB); assay: Growth inhibition of human HL-60(TB) cells assessed as cell growth at 10^-7 M by sulforhodamine B assay; details: read-out: Activity
[7] = tested on: MCF7; assay: Growth inhibition of human MCF7 cells assessed as cell growth at 10^-4 M by sulforhodamine B assay; details: read-out: Activity
[8] = tested on: COLO 205; assay: Growth inhibition of human COLO205 cells assessed as cell growth at 10^-8 M by sulforhodamine B assay; details: read-out: Activity
[9] = tested on: Malme-3M; assay: Growth inhibition of human MALME-3M cells by sulforhodamine B assay
[10] = tested on: SW-620; assay: Growth inhibition of human SW620 cells assessed as cell growth at 10^-4 M by sulforhodamine B assay; details: read-out: Activity
[11] = tested on: NCI-H322M; assay: Growth inhibition of human NCI-H322M cells assessed as cell growth at 10^-7 M by sulforhodamine B assay; details: read-out: Activity
[12] = tested on: NCI-H226; assay: Growth inhibition of human NCI-H226 cells assessed as cell growth at 10^-6 M by sulforhodamine B assay; details: read-out: Activity
[13] = tested on: ACHN; assay: Growth inhibition of human ACHN cells assessed as cell growth at 10^-8 M by sulforhodamine B assay; details: read-out: Activity
[14] = tested on: SK-MEL-2; assay: Growth inhibition of human SK-MEL-2 cells assessed as cell growth at 10^-6 M by sulforhodamine B assay; details: read-out: Activity
[15] = tested on: MDA-MB-231; assay: Growth inhibition of human MDA-MB-231 cells assessed as cell growth at 10^-4 M by sulforhodamine B assay; details: read-out: Activity
[16] = tested on: SK-MEL-28; assay: Growth inhibition of human SK-MEL-28 cells assessed as cell growth at 10^-7 M by sulforhodamine B assay; details: read-out: Activity
[17] = tested on: SN12C; assay: Growth inhibition of human SN12C cells by sulforhodamine B assay
[18] = tested on: SF-539; assay: Growth inhibition of human SF539 cells assessed as cell growth at 10^-8 M by sulforhodamine B assay; details: read-out: Activity
[19] = tested on: NCI-H322M; assay: Growth inhibition of human NCI-H322M cells assessed as cell growth at 10^-8 M by sulforhodamine B assay; details: read-out: Activity
[20] = tested on: A549; assay: Growth inhibition of human A549/ATCC cells by sulforhodamine B assay
[21] = tested on: MDA-MB-468; assay: Growth inhibition of human MDA-MB-468 cells assessed as cell growth at 10^-8 M by sulforhodamine B assay; details: read-out: Activity
[22] = tested on: NCI-H23; assay: Growth inhibition of human NCI-H23 cells assessed as cell growth at 10^-4 M by sulforhodamine B assay; details: read-out: Activity
[23] = tested on: MDA-MB-231; assay: Growth inhibition of human MDA-MB-231 cells assessed as cell growth at 10^-7 M by sulforhodamine B assay; details: read-out: Activity
[24] = tested on: DU-145; assay: Growth inhibition of human DU145 cells assessed as cell growth at 10^-4 M by sulforhodamine B assay; details: read-out: Activity
[25] = Growth inhibition of human HCC2998 cells by sulforhodamine B assay
[26] = tested on: OVCAR-4; assay: Growth inhibition of human OVCAR4 cells by sulforhodamine B assay
[27] = tested on: SK-MEL-28; assay: Growth inhibition of human SK-MEL-28 cells by sulforhodamine B assay
[28] = tested on: ACHN; assay: Growth inhibition of human ACHN cells by sulforhodamine B assay
[29] = tested on: SK-MEL-5; assay: Growth inhibition of human SK-MEL-5 cells assessed as cell growth at 10^-6 M by sulforhodamine B assay; details: read-out: Activity
[30] = tested on: RXF 393; assay: Growth inhibition of human RXF393 cells by sulforhodamine B assay
[31] = tested on: OVCAR-3; assay: Growth inhibition of human OVCAR3 cells assessed as cell growth at 10^-6 M by sulforhodamine B assay; details: read-out: Activity
[32] = tested on: SR; assay: Growth inhibition of human SR cells by sulforhodamine B assay
[33] = tested on: OVCAR-8; assay: Growth inhibition of human OVCAR8 cells assessed as cell growth at 10^-6 M by sulforhodamine B assay; details: read-out: Activity
[34] = tested on: OVCAR-5; assay: Growth inhibition of human OVCAR5 cells assessed as cell growth at 10^-4 M by sulforhodamine B assay; details: read-out: Activity
[35] = tested on: A498; assay: Growth inhibition of human A498 cells assessed as cell growth at 10^-7 M by sulforhodamine B assay; details: read-out: Activity
[36] = tested on: SF-268; assay: Growth inhibition of human SF268 cells by sulforhodamine B assay
[37] = tested on: SK-MEL-2; assay: Growth inhibition of human SK-MEL-2 cells assessed as cell growth at 10^-4 M by sulforhodamine B assay; details: read-out: Activity
[38] = read-out: LC50 (the source's name)
[39] = read-out: pLC50 (the source's name) (converted)

Compound `CC(C)=CC(=O)O[C@@H]1CC(C)(C)C[C@H]2C3=CC[C@@H]4[C@@]5(C)CC[C@H](O)C(C)(C)[C@@H]5CC[C@@]4(C)[C@]3(C)CC[C@@]12C(=O)O` [Reduced Lantadene B] has a growth at 1 µM [1] of 96%, a growth at 0.1 µM [2] of 98% and a GI50 ([3]; read-out: GI50) of 8.94 µM. It also gave a CC50 [3, 38] greater than 100 µM, a TGI ([3]; read-out: TGI) of 36.2 µM and a GI50 ([3]; read-out: pGI50 (converted)) of 8.91 µM. For the same compound, the CC50 [3, 39] was greater than 100 µM, the TGI ([3]; read-out: pTGI (converted)) was 36.3 µM and the growth at 1 µM [4] was 89%. For the same compound, the growth at 0.1 µM [5] was 88%, the growth at 0.1 µM [6] was 105% and the growth at 100 µM [7] was -43%. For the same compound, the growth at 0.01 µM [8] was 107%, the GI50 ([9]; read-out: GI50) was 13.7 µM and the CC50 [9, 38] was greater than 100 µM. For the same compound, the TGI ([9]; read-out: TGI) was 38.6 µM, the GI50 ([9]; read-out: pGI50 (converted)) was 13.8 µM and the CC50 [9, 39] was greater than 100 µM. It also gave a TGI ([9]; read-out: pTGI (converted)) of 38.9 µM, a growth at 100 µM [10] of -15% and a growth at 0.1 µM [11] of 89%. For the same compound, the growth at 1 µM [12] was 86%, the growth at 0.01 µM [13] was 103% and the growth at 1 µM [14] was 107%. For the same compound, the growth at 100 µM [15] was -79%, the growth at 0.1 µM [16] was 100% and the GI50 ([17]; read-out: GI50) was 2.88 µM. The CC50 [17, 38] was 37 µM, the TGI ([17]; read-out: TGI) was 10.9 µM and the GI50 ([17]; read-out: pGI50 (converted)) was 2.88 µM. For the same compound, the CC50 [17, 39] was 37.2 µM, the TGI ([17]; read-out: pTGI (converted)) was 11 µM and the growth at 0.01 µM [18] was 96%. It also gave a growth at 0.01 µM [19] of 90%, a GI50 ([20]; read-out: GI50) of 0.438 µM and a CC50 [20, 38] of 82.4 µM. It also gave a TGI ([20]; read-out: TGI) of 14.9 µM, a GI50 ([20]; read-out: pGI50 (converted)) of 0.437 µM and a CC50 [20, 39] of 83.2 µM. It also gave a TGI ([20]; read-out: pTGI (converted)) of 14.8 µM, a growth at 0.01 µM [21] of 92% and a growth at 100 µM [22] of -58%. The growth at 0.1 µM [23] was 97%, the growth at 100 µM [24] was -75% and the GI50 ([25]; HCC 2998, read-out: GI50) was 3.72 µM. It also gave a CC50 ([25]; HCC 2998, read-out: LC50 (the source's name)) of 62.9 µM, a TGI ([25]; HCC 2998, read-out: TGI) of 15.3 µM and a GI50 ([25]; HCC 2998, read-out: pGI50 (converted)) of 3.72 µM. It also gave a CC50 ([25]; HCC 2998, read-out: pLC50 (the source's name) (converted)) of 63.1 µM, a TGI ([25]; HCC 2998, read-out: pTGI (converted)) of 15.5 µM and a GI50 ([26]; read-out: GI50) of 8.59 µM. The CC50 [26, 38] was greater than 100 µM, the TGI ([26]; read-out: TGI) was 35.6 µM and the GI50 ([26]; read-out: pGI50 (converted)) was 8.51 µM. It also gave a CC50 [26, 39] greater than 100 µM, a TGI ([26]; read-out: pTGI (converted)) of 35.5 µM and a GI50 ([27]; read-out: GI50) of 4.89 µM. For the same compound, the CC50 [27, 38] was 70.1 µM, the TGI ([27]; read-out: TGI) was 20.4 µM and the GI50 ([27]; read-out: pGI50 (converted)) was 4.9 µM. For the same compound, the CC50 [27, 39] was 70.8 µM, the TGI ([27]; read-out: pTGI (converted)) was 20.4 µM and the GI50 ([28]; read-out: GI50) was 2.93 µM. It also gave a CC50 [28, 38] of 58.5 µM, a TGI ([28]; read-out: TGI) of 20.4 µM and a GI50 ([28]; read-out: pGI50 (converted)) of 2.95 µM. It also gave a CC50 [28, 39] of 58.9 µM, a TGI ([28]; read-out: pTGI (converted)) of 20.4 µM and a growth at 1 µM [29] of 77%. For the same compound, the GI50 ([30]; read-out: GI50) was 2.58 µM, the CC50 [30, 38] was 35.6 µM and the TGI ([30]; read-out: TGI) was 7.69 µM. The GI50 ([30]; read-out: pGI50 (converted)) was 2.57 µM, the CC50 [30, 39] was 35.5 µM and the TGI ([30]; read-out: pTGI (converted)) was 7.76 µM. For the same compound, the growth at 1 µM [31] was 86%, the GI50 ([32]; read-out: GI50) was 5.04 µM and the CC50 [32, 38] was greater than 100 µM. The TGI ([32]; read-out: TGI) was 35.4 µM, the GI50 ([32]; read-out: pGI50 (converted)) was 5.01 µM and the CC50 [32, 39] was greater than 100 µM. For the same compound, the TGI ([32]; read-out: pTGI (converted)) was 35.5 µM, the growth at 1 µM [33] was 82% and the growth at 100 µM [34] was -51%. The growth at 0.1 µM [35] was 85%, the GI50 ([36]; read-out: GI50) was 5.87 µM and the LC50 ([36]; read-out: LC50) was 97.2 µM. It also gave a TGI ([36]; read-out: TGI) of 26.1 µM, a GI50 ([36]; read-out: pGI50 (converted)) of 5.89 µM and an LC50 ([36]; read-out: pLC50 (converted)) of 97.7 µM. It also gave a TGI ([36]; read-out: pTGI (converted)) of 26.3 µM and a growth at 100 µM [37] of -71%.
